Measured values as given in patent publication EP0111413A1, “Novel sulfone, process for its preparation, composition containing it and use thereof” (priority 1982, dated 1984).

Experiments:
Pseudomonas aeruginosa = assay: Minimum Inhibitory Concentration test in nutrient broth (bacterial); format: cell-based; set-up: key: + = Growth; - = No Growth
Procedure: (§1) A Minimum Inhibitory Concentration test with bacteria and fungus was performed in nutrient broth. The test compound was added to sterile broth at 0.1% (1000PPM) and diluted sequentially with sterile broth to yield required levels. One drop of an actively-growing 24-hour culture was added to each level and incubated for a period of 24 hours at a temperature of 30°C. At the end of the time period, an aliquot from each tube was placed on nutrient agar and observed for growth.

Alternaria solani = assay: Minimum Inhibitory Concentration test in nutrient broth (fungal); format: cell-based; set-up: key: + = Growth; - = No Growth
Procedure: as §1

Annual morning glory = assay: Postemergence herbicidal test; format: in vivo, Ipomoea purpurea; details: Application rate 4.0 lb/A, postemergence spray, rated visually nineteen days later
Source text: (§2) Aluminum planting flats measuring 15.2 x 22.9 x 8.9 cm were filled to a depth of 7.6 cm with loamy sand soil, containing 50 parts per million (ppm) each of the commercial fungicide cis-N(trichloromethyl)thio -4-cyclohexane-l,2-dicarboximide (Captan®) and 17-17-17 fertilizer (percentages of N-P2O5-K2O) on a weight basis). Several rows were impressed across the width of each flat and a variety of seeds of both grass and broadleaf weed species were planted, one species per row. The weed species used are listed below:
(§3) The broad leaf species were seeded first, and the grasses were seeded four days later. Ample seeds of each species were planted to produce 20 to 50 seedlings per row after emergence, depending on the size of each plant.
(§4) Ten days after the grasses were seeded, the emerged seedlings of all species were sprayed with aqueous solutions of the test compounds. The solutions were prepared to such dilutions that a spray rate of 80 gallons per acre (750 liters per hectare) gave from 0.5 to 4.0 pounds of test compound per acre (0.56 to 4.48 kilograms per hectare) as desired for each test. Additional flats not treated at all were used as standards for measuring the extent of weed control in the treated flats. […]

Velvetleaf = assay: Postemergence herbicidal test; format: in vivo, Abutilon theophrasti; details: Application rate 4.0 lb/A, postemergence spray, rated visually nineteen days later
Source text: as §2, §3, §4

Mustard = assay: Postemergence herbicidal test; format: in vivo, Brassica sp.; details: Application rate 4.0 lb/A, postemergence spray, rated visually nineteen days later
Source text: as §2, §3, §4

Foxtail = assay: Postemergence herbicidal test; format: in vivo, Setaria sp.; details: Application rate 4.0 lb/A, postemergence spray, rated visually nineteen days later
Source text: as §2, §3, §4

Watergrass = assay: Postemergence herbicidal test; format: in vivo, Echinochloa crusgalli; details: Application rate 4.0 lb/A, postemergence spray, rated visually nineteen days later
Source text: as §2, §3, §4

Wild oat = assay: Postemergence herbicidal test; format: in vivo, Avena fatua; details: Application rate 4.0 lb/A, postemergence spray, rated visually nineteen days later
Source text: as §2, §3, §4

[1] = 62.5 PPM, buffered to pH 6.8, 24 hours at 30°C
[2] = 62.5 PPM, pH 4, 24 hours at 30°C
[3] = 125 PPM, buffered to pH 6.8, 24 hours at 30°C
[4] = 125 PPM, pH 4, 24 hours at 30°C
[5] = 250 PPM, buffered to pH 6.8, 24 hours at 30°C
[6] = 250 PPM, pH 4, 24 hours at 30°C
[7] = 500 PPM, buffered to pH 6.8, 24 hours at 30°C
[8] = 500 PPM, pH 4, 24 hours at 30°C
[9] = 1000 PPM, buffered to pH 6.8, 24 hours at 30°C
[10] = 1000 PPM, pH 4, 24 hours at 30°C

CS(=O)(=O)CC(Cl)C#N (centres unmarked) [Compound 1, 3-(methylsulfonyl)-2-chloropropanenitrile]
75%: Percent Control A (Annual morning glory) | Percent Control D (Velvetleaf) | Percent Control J (Foxtail)
-: Growth (Pseudomonas aeruginosa; [1]) | Growth (Pseudomonas aeruginosa; [2]) | Growth (Pseudomonas aeruginosa; [3]) | Growth (Pseudomonas aeruginosa; [4]) | Growth (Pseudomonas aeruginosa; [5]) | Growth (Pseudomonas aeruginosa; [6]) | Growth (Pseudomonas aeruginosa; [7]) | Growth (Pseudomonas aeruginosa; [8]) | Growth (Pseudomonas aeruginosa; [9]) | Growth (Pseudomonas aeruginosa; [10]) | Growth (Alternaria solani; [4]) | Growth (Alternaria solani; [5]) | Growth (Alternaria solani; [6]) | Growth (Alternaria solani; [7]) | Growth (Alternaria solani; [8]) | Growth (Alternaria solani; [9]) | Growth (Alternaria solani; [10])
30%: Percent Control N (Wild oat)
40%: Percent Control E (Mustard)
65%: Percent Control L (Watergrass)
+: Growth (Alternaria solani; [1]) | Growth (Alternaria solani; [2]) | Growth (Alternaria solani; [3])
